From US6692927B2, “Bax degradation involvement in tumor survival and progression” (University of South Florida, priority 2000, dated 2004)
Where a SMILES comes first, the peptide text is derived from it. [ ]: non-standard residue; d: D form. The star is where a group is joined. Nva = CCC[C@H](N)C(=O)O; Cbz = O=C(OCc1ccccc1)*

Legend:
[1] = system: SV40-transformed (VA-13) cells; test: PARP cleavage, cytochrome c release and Bax accumulation in SV40-transformed fibroblasts; assay type: cell-based, human
Source text: (§1) Proteasome inhibitors activate Bax- and cytochrome c-dependent apoptosis pathway preferentially in transformed human fibroblasts. Normal human fibroblasts are more resistant to proteasome inhibitor-induced apoptosis than transformed and cancer cells (An et al., in press). This is probably due to inability of the normal cells to accumulate Bax protein in response to proteasome inhibition, and consequently failure to release cytochrome c. To test this hypothesis, both SV40-transformed and normal WI-38 cells were treated with 50 microM LLnV for up to 24 hours, followed by measurement of PARP cleavage, cytochrome c release and Bax accumulation. […] In contrast, only after 24 hours treatment, low levels of p85/PARP fragment and cytosolic cytochrome c were detected in normal WI-38 cells (FIGS. 1, A, B, lanes 8-14). […] The levels of Bax/p21 were increased at as early as 4 hours and remained high afterwards. […] The level of another band of ˜47 kDa increased at 4 hours, further increased between 6 and 12 hours, and then decreased (FIG. 1C). The p70 and p47 bands can contain ubiquitinated forms of Bax since similar polypeptides were detected by antibodies to both Bax and ubiquitin (Li et al., 1999). […] Therefore, although unable to activate the Bax- and cytochrome c-dependent apoptotic pathway in response to a low concentration of a proteasome inhibitor, normal cells are capable of undergoing Bax- and cytochrome c-independent apoptosis in response to a proteasome inhibitor at higher concentrations.
(§2) SV40-transformed (VA-13) and normal WI-38 cells were treated with 50 microM LLnV or DMSO (letter D) for up to 24 hours, followed by measurement of PARP cleavage (A), cytochrome c release (B) and Bax accumulation (C; also see FIG. 2). Panel D, exponentially grown VA-13 cells were pretreated with 50 microM LLnV or DMSO for 1 hour, washed with methionine-free medium, and then incubated for 30 minutes in methionine-free medium plus 50 microM LLnV (or DMSO). This was followed by replacing fresh methionine-free medium containing 150 microCi/ml of [^35S]-methionine, 10% dialyzed FBS and 50 microM LLnV (or DMSO). Cells were further incubated for 6 hours, followed by preparation of [^35S]-labeled protein lysates and Bax immunoprecipitates (6A7, PharMingen). The labeled Bax bands are indicated. […] Bax-alpha subcloned into pcDNA3 was used for coupled in vitro transcription/translation in the presence of [^35S]methionine. For Bax cleavage assay, the whole cell extracts were prepared. The [^35S]-labeled Bax (0.7 microl) was incubated with 50 microg protein in assay buffer (containing 50 microM LLM and no Ca^2+) for 4 hours at 37° C. Following incubation, the samples were subjected to SDS gel electrophoresis and autoradiography.

[2] = system: normal WI-38 cells; test: PARP cleavage, cytochrome c release, Bax and p21 in normal fibroblasts; assay type: cell-based, human; conditions: 50 microM LLnV
Source text: as §1, §2

CCC[C@@H](C=O)NC(=O)[C@H](CC(C)C)NC(=O)[C@H](CC(C)C)NC(=O)OCc1ccccc1 [LLnV] (Cbz-Leu-Leu-[Nva]-aldehyde)
earliest time of increased Bax/p21 levels ([1]; 50 microM LLnV): 4 h | Bax levels ([1]; 50 microM LLnV, prior to release of cytochrome c): dramatically increased | time at which cleavage of PARP and release of cytochrome c were detected ([1]; 50 microM LLnV, up to 24 hours): 8 h | Bax accumulation and apoptosis (PARP cleavage) ([1]; LLnV treatment (FIG. 4B)): rapidly accumulated Bax protein and subsequently induced apoptosis | time at which low levels of p85/PARP fragment and cytosolic cytochrome c were detected [2]: 24 h
